Assay results as given in patent publication US10220005B2 (GW Research Limited, priority 2012, dated 2019).

What was measured:
interleukin 1 = assay: Piglet model of HI, interleukin 1 in brain tissue by microarrays; type: in vivo; conditions: piglets
Description: (§1) A piglet model of HI was used as described in (Alvarez et al. 2008). Briefly, an HI insult is induced in anesthetized 1-3 day-old piglets by occluding both carotid arteries and decreasing inspired oxygen from 21 to 10% for 30 min.
(§2) Thirty minutes after the recovery of HI the test compound was administered via the i.v. route.
(§3) At the end of the experiment, piglets are euthanized and the brain removed; one hemisphere was immediately frozen and stored at −80 ° C. whereas the other one was preserved in 4% paraformaldehide. A sample of frozen brain was obtained to perform a proton magnetic resonance spectroscopy (H+-MRS). Similarly managed piglets but without HI served as controls.

piglet model of HI = assay: Piglet model of HI, Nissl staining of brain slices (Example 1); type: in vivo; conditions: piglets; for effect of co-administered antagonist on the CBD-induced reduction of neuronal death: given with CBD 1 mg/kg i.v., AM630 1 mg/kg, WAY100635 0.1 mg/kg, caffeine 10 mg/kg
Description: as §1, §2, §3

rat model of HI [1] = assay: Rat model of HI, neurobehavioral tests (rotarod, cylinder, novel object); type: in vivo, Wistar rats; conditions: rats, CBD 1 mg/kg s.c. single dose, tests at day 35
Description: (§4) A rat model of HI was used as described by (Fernandez-Lopez et al., 2007). Briefly, an HI insult is induced in 7-10 day-old Wistar rats by electro-coagulating the left carotid artery under anaesthesia following by the exposure to 10% oxygen for 120 min.
Sham operated pups without hypoxia served as controls, and were treated with vehicle or CBD as indicated. The pups were then returned to their dams.
At day 35 rats underwent neurobehavioral tests: rotarod (to test coordination), cylinder (to test unilateral deficits) and novel object preference (to test memory impairments).

rat model of HI [2] = assay: Rat model of HI, magnetic resonance imaging of brain lesion; type: in vivo, Wistar rats; conditions: rats, CBD 1 mg/kg s.c. single dose, one month later (P37)
Description: as §4
The pups were then returned to their dams.
Rats were then euthanized and the brain removed and stored in 4% paraforlmadehide. Magnetic resonance imaging was performed on the brains to evaluate the damaged area. In some rats, MRI was performed 7 days after HI.

In the case of `COc1ccc(C(=O)c2c(C)n(CCN3CCOCC3)c3cc(I)ccc23)cc1` [AM], the “effect of co-administered antagonist on the CBD reduction of IL-1 production” value (interleukin 1; given with CBD 1 mg/kg i.v., AM630 1 mg/kg, WAY100635 0.1 mg/kg, caffeine 10 mg/kg) is reported as “blunted” and the “effect of co-administered antagonist on the CBD-induced reduction of neuronal death” value (piglet model of HI) is reported as “blunted”.
For `C=C(C)[C@@H]1CCC(C)=C[C@H]1c1c(O)cc(CCCCC)cc1O` [CBD, cannabidiol], the “production of IL-1 (concentration of interleukin 1 in brain tissue)” value (interleukin 1; CBD 1 mg/kg i.v., 6 h after HI, microarrays) was “reduces”, the “coordination (RotaRod)” value (rat model of HI [1]) was “normalization” and the “memory (novel object recognition)” value (rat model of HI [1]) was “normalization”. For the same molecule, the “motor performance (cylinder rear test)” value (rat model of HI [1]) was “normalization”, the “volume of lesion (MRI; printed as brain volume)” value (rat model of HI [2]) was “significantly reduced” and the “percentage of necrotic tissue in both the cortex and the hippocampus” value (piglet model of HI; CBD 1 mg/kg i.v. 30 min after HI, brain tissue 6 h after HI) was “reduces”.
`COc1ccccc1N1CCN(CCN(C(=O)C2CCCCC2)c2ccccn2)CC1` [WAY] was tested, and the “effect of co-administered antagonist on the CBD-induced reduction of neuronal death” value (piglet model of HI) was “blunted”.
With `Cn1c(=O)c2c(ncn2C)n(C)c1=O` [caffeine, Caffeine] the “effect of co-administered antagonist on the CBD-induced reduction of neuronal death” value (piglet model of HI) was “not by caffeine”.
